Test results published in patent US20240148821A1, “PHARMACEUTICAL USE OF CYCLIC PEPTIDE COMPOUND” (CHUGAI SEIYAKU KABUSHIKI KAISHA, priority 2021, published 2024).
Bridge positions count the residues as written; N and C are the ends. Square brackets hold non-standard residues; d marks the D form. Peptide text beside a SMILES is read from it. * marks the point of attachment. hPhe(3-Cl-4-CF3) = N[C@@H](CCc1ccc(C(F)(F)F)c(Cl)c1)C(=O)O; hPhe(3-OMe-4-CF3) = COc1cc(CC[C@H](N)C(=O)O)ccc1C(F)(F)F; NMePhe(4-Me) = CN[C@@H](Cc1ccc(C)cc1)C(=O)O; NMeNva(5,5-F2) = CN[C@@H](CCC(F)F)C(=O)O; NMeGly(cPent) = CN[C@H](C(=O)O)C1CCCC1; NMe4Pal = CN[C@@H](Cc1ccncc1)C(=O)O; NMeCha = CN[C@@H](CC1CCCCC1)C(=O)O; NMeChg = CN[C@H](C(=O)O)C1CCCCC1; NMeI = CC[C@H](C)[C@H](NC)C(=O)O; NMeD = CN[C@@H](CC(=O)O)C(=O)O; NMeL = CN[C@@H](CC(C)C)C(=O)O; NMeNva = CCC[C@H](NC)C(=O)O; Morpholide = C1CN(*)CCO1; NMeA = CN[C@@H](C)C(=O)O; Piperidide = C1CCN(*)CC1; Pyrrolidide = C1CCN(*)C1; Ac5c = NC1(C(=O)O)CCCC1; Aze = O=C(O)[C@@H]1CCN1; Ac4c = NC1(C(=O)O)CCC1; Sar = CNCC(=O)O

Tested on: Human pancreatic cancer cell line AsPC-1 (G12D mutation Kras)
Experiment: AsPC-1 cell growth inhibition (AsPC-1 CGI)
Assay type: cell-based
Conditions: read-out: AsPC-1 cell growth inhibition, 50% growth inhibitory concentration (IC50 value); 96 hours, CellTiter-Glo, values classified in ranges
Experimental: Test compounds were serially dilated with dimethyl sulfoxide, and 200 nL was then dispensed to a U-bottom 96-well plate using Labcyte Echo. […] The cell suspension was dispensed to a. plate containing a test compound at 100 μL per well and incubated at 37° C. in a 5% carbon dioxide gas incubator. 96 hours later, 80 μL of CellTiter-Glo (Promega) was added to each well and fluorescence was measured.

`CC[C@H](C)[C@@H]1NC(=O)[C@H](CC(C)C)N(C)C(=O)C[C@@H](C(=O)N2CCCC2)N(C)C(=O)[C@H](C2CCCCC2)N(C)C(=O)C2(CCC2)NC(=O)[C@@H]2CCCN2C(=O)[C@H](CCc2ccc(C(F)(F)F)c(Cl)c2)NC(=O)CN(C)C(=O)[C@H](CC2CCCCC2)N(C)C(=O)CN(C)C(=O)CN(C)C1=O` [Compound 1894] ([NMeL]I[Sar][Sar][NMeCha][Sar][hPhe(3-Cl-4-CF3)]P[Ac4c][NMeChg][NMeD]-Pyrrolidide; lactam N-11) and `CCC[C@H]1C(=O)N[C@@H]([C@@H](C)CC)C(=O)N(C)CC(=O)N(C)CC(=O)N(C)[C@@H](CC2CCCCC2)C(=O)N(C)CC(=O)N[C@@H](CCc2ccc(C(F)(F)F)c(Cl)c2)C(=O)N2CCC[C@H]2C(=O)NC2(CCCC2)C(=O)N(C)[C@@H](C2CCCCC2)C(=O)N(C)[C@H](C(=O)N2CCCC2)CC(=O)N1C` [Compound 2001] ([NMeNva]I[Sar][Sar][NMeCha][Sar][hPhe(3-Cl-4-CF3)]P[Ac5c][NMeChg][NMeD]-Pyrrolidide; lactam N-11) cannot be ordered by IC50: no more than 20 nM for the first, no more than 20 nM for the second.

`CC[C@H](C)[C@@H]1NC(=O)[C@H](CC(C)C)N(C)C(=O)C[C@@H](C(=O)N(C)C)N(C)C(=O)[C@H]([C@@H](C)CC)N(C)C(=O)[C@H](C(C)C)NC(=O)[C@H](Cc2ccncc2)N(C)C(=O)[C@H](CCc2ccc(C(F)(F)F)c(Cl)c2)NC(=O)CN(C)C(=O)[C@H](Cc2ccc(C)cc2)N(C)C(=O)[C@@H]2CCN2C(=O)[C@H](C)N(C)C1=O` [Compound 1897] ([NMeL]I[NMeA][Aze][NMePhe(4-Me)][Sar][hPhe(3-Cl-4-CF3)][NMe4Pal]V[NMeI][NMeD]-NMe2; lactam N-11) and `CC[C@H](C)[C@@H]1NC(=O)[C@H](CC(C)C)N(C)C(=O)C[C@@H](C(=O)N(C)C)N(C)C(=O)[C@H]([C@@H](C)CC)N(C)C(=O)[C@H](C)NC(=O)[C@H](Cc2ccncc2)N(C)C(=O)[C@H](CCc2ccc(C(F)(F)F)c(Cl)c2)NC(=O)CN(C)C(=O)[C@H](Cc2ccc(C)cc2)N(C)C(=O)[C@@H]2CCN2C(=O)[C@H](C)N(C)C1=O` [Compound 1973] ([NMeL]I[NMeA][Aze][NMePhe(4-Me)][Sar][hPhe(3-Cl-4-CF3)][NMe4Pal]A[NMeI][NMeD]-NMe2; lactam N-11) cannot be ordered by IC50: greater than 500 nM for the first, greater than 500 nM for the second.

`CC[C@H](C)[C@@H]1NC(=O)[C@H](CC(C)C)N(C)C(=O)C[C@@H](C(=O)N(C)C)N(C)C(=O)[C@H]([C@@H](C)CC)N(C)C(=O)C2(CCCC2)NC(=O)[C@H](CCC(F)F)N(C)C(=O)[C@H](CCc2ccc(C(F)(F)F)c(Cl)c2)NC(=O)CN(C)C(=O)[C@H](Cc2ccc(C)cc2)N(C)C(=O)[C@@H]2CCN2C(=O)[C@H](C)N(C)C1=O` [Compound 1898] ([NMeL]I[NMeA][Aze][NMePhe(4-Me)][Sar][hPhe(3-Cl-4-CF3)][NMeNva(5,5-F2)][Ac5c][NMeI][NMeD]-NMe2; lactam N-11) and `CC[C@H](C)[C@@H]1NC(=O)[C@H](CC(C)C)N(C)C(=O)C[C@@H](C(=O)N(C)C)N(C)C(=O)[C@H]([C@@H](C)CC)N(C)C(=O)C2(CCCC2)NC(=O)[C@H](Cc2ccncc2)N(C)C(=O)[C@H](CCc2ccc(C(F)(F)F)c(Cl)c2)NC(=O)CN(C)C(=O)[C@H](Cc2ccc(C)cc2)N(C)C(=O)[C@@H]2CCN2C(=O)[C@H](C)N(C)C1=O` [Compound 1962] ([NMeL]I[NMeA][Aze][NMePhe(4-Me)][Sar][hPhe(3-Cl-4-CF3)][NMe4Pal][Ac5c][NMeI][NMeD]-NMe2; lactam N-11) cannot be ordered by IC50: no more than 20 nM for the first, no more than 20 nM for the second.

`CC[C@H](C)[C@@H]1NC(=O)[C@H](CC(C)C)N(C)C(=O)C[C@@H](C(=O)N2CCOCC2)N(C)C(=O)[C@H]([C@@H](C)CC)N(C)C(=O)C2(CCCC2)NC(=O)[C@@H]2CCCN2C(=O)[C@H](CCc2ccc(C(F)(F)F)c(Cl)c2)NC(=O)CN(C)C(=O)[C@H](CC2CCCCC2)N(C)C(=O)CN(C)C(=O)CN(C)C1=O` [Compound 1979] ([NMeL]I[Sar][Sar][NMeCha][Sar][hPhe(3-Cl-4-CF3)]P[Ac5c][NMeI][NMeD]-Morpholide; lactam N-11) and `CC[C@H](C)[C@@H]1NC(=O)[C@H](CC(C)C)N(C)C(=O)C[C@@H](C(=O)N2CCCCC2)N(C)C(=O)[C@H](C2CCCC2)N(C)C(=O)C2(CCCC2)NC(=O)[C@@H]2CCCN2C(=O)[C@H](CCc2ccc(C(F)(F)F)c(OC)c2)NC(=O)CN(C)C(=O)[C@H](CC2CCCCC2)N(C)C(=O)[C@@H]2CCN2C(=O)[C@H](C)N(C)C1=O` [Compound 2080] ([NMeL]I[NMeA][Aze][NMeCha][Sar][hPhe(3-OMe-4-CF3)]P[Ac5c][NMeGly(cPent)][NMeD]-Piperidide; lactam N-11 (inferred); C-terminus assumed) cannot be ordered by IC50: no more than 20 nM for the first, no more than 20 nM for the second.

Work on `CC[C@H](C)[C@@H]1NC(=O)[C@H](CC(C)C)N(C)C(=O)C[C@@H](C(=O)N(C)C)N(C)C(=O)[C@H](C2CCCC2)N(C)C(=O)[C@H](C(C)C)NC(=O)[C@H](Cc2ccncc2)N(C)C(=O)[C@H](CCc2ccc(C(F)(F)F)c(Cl)c2)NC(=O)CN(C)C(=O)[C@H](CC2CCCCC2)N(C)C(=O)[C@@H]2CCN2C(=O)[C@H](C)N(C)C1=O` [Compound 1982] ([NMeL]I[NMeA][Aze][NMeCha][Sar][hPhe(3-Cl-4-CF3)][NMe4Pal]V[NMeGly(cPent)][NMeD]-NMe2; lactam N-11) yielded an IC50 greater than 500 nM.
